Measured values from patent US20260071150A1, “MICROBIAL ENHANCED COMPOSITIONS WHICH OVERCOME ANTAGONISTIC SURFACTANT INCOMPATIBILITY” (Stepan Company, priority 2023, published 2026).
Read-outs that look alike come from different tables or passages of the source.

Key:
[1] = tested on: Bacillus species mix in spore form; experiment: un-dyed EVOO test, visual haze; conditions: for biological activity (haze), low foam alkoxylate with additives: 1.0 wt % TOXIMUL 8240, 0.09 wt % L-alanine; for biological activity (haze), magnesium salt in the additive: 0.2 wt % rhamnolipids, 0.03 wt % L-alanine, 0.03 wt % potassium nitrate, 0.14 wt % magnesium salt
Method: Comparative compositions were also prepared comprising the surfactant and bacterial spores, but no additive. Control compositions contained the bacterial spores, with and without additives, but no surfactant. All test, comparative and control compositions contained 2 wt % of 3.3 g/L Nutrient Mix. The pH was adjusted to pH of 7 if needed, using L-lactic acid or dilute NaOH. The compositions were photographed initially, then re-photographed after 4 and 5-7 days of orbital-mixer shaking at setting “5”, and initial and aged compositions were compared visually to determine differences.

[2] = tested on: Bacillus species mix in spore form; experiment: dyed extra-virgin olive oil (EVOO) digestion test with Stat-Ease 360 optimization; assay type: cell-based
Method: Because EVOO is a food source for vegetative cells, lightly-dyed EVOO added to a test sample containing bacterial spores can be an indicator of biological activity. […] Each test composition also included 0.20 g of 33 g/L Nutrient Mix (30 g/L Tryptic Soy Broth BD211825 and 3 g/L Yeast Extract BD212750 at pH 7.1-7.4). The test composition is mixed, then stored at 37° C. for 2-3 days to condition the spores. […] The initial oil drop is digitally photographed, and re-photographed after 4 days of gentle swirling on an orbital shaker at a setting of 1-2 on a scale of 0-10. Oil drop sizes are determined by transferring the photographed images to a computer and measuring the major diameter of each oil drop using a Tracker.jar line profile analysis (https://physlets.org/tracker/) to determine the length of the diameter in units of pixels. Oil drop sizes of initial and digested test samples are compared. […] An increase in measured drop diameter is interpreted as a change in surface tension due to the surfactant, combined with no or minimal EVOO digestion by the bacteria.
Stat-Ease 360 software was used to generate each design of experiment sample group, model the test results from the resulting data, and generate statistics for the optimal models. The models were then used to generate an optimization plot using Stat-Ease 360's Numerical Optimization function. The optimization includes a contour plot of “desirability” of component levels for the defined design space. These plots visually represent the complex relationships between the surfactant and additive components and show where desired performance is high and where it is low or zero.

[3] = physical stability (spore dispersion) of test compositions; assay type: physicochemical
Method: The alpha sulfonated alkyl ester test compositions from Example 3 were used for this stability assessment because, unexpectedly, the spores in some of the test compositions remained fully dispersed in the compositions after sitting for 1 week, even though the test compositions were at use dilution and water thin. Physical stability of the test compositions was assessed by photographing the test compositions in the parent sample jars (from which the Example 3 samples were taken), looking down on the sample jars, and quantifying the degree of precipitation via Tracker.jar image analysis.

Bacillus spore blend = experiment: diluted concentrate EVOO haze test; assay type: cell-based
Method: Concentrates of two test formulations were prepared comprising the alkyl ether sulfate surfactant at 7.5 wt % actives, a Bacillus spore blend at 10.0 wt % (5×10^9 CFU/g), a mixture of 0.75 wt % potassium chloride and 0.75 wt % magnesium nitrate, and water to total 100%. Castor oil 36EO alkoxylate (TOXIMUL® 8240) (100% active) in an amount of 1.5 wt % was added to one of the test formulations. Two comparative concentrate compositions were also prepared. One comparative composition comprised the same amount of surfactant and spores but no additive or TOXIMUL® 8240, and the other comparative composition comprised the same amount of surfactant, spores, and TOXIMUL® 8240, but no additive. A total of 20 g of each concentrate composition was prepared.
For the test, each concentrate composition was diluted to 2.0 wt % (1×10^8 CFU/g) in a 4 oz glass jar, with 1 wt % 33 g/L Nutrient (30 g/L Tryptic Soy Broth+3 g/L Yeast Extract), 0.2 wt % Extra Virgin Olive Oil (EVOO), and water to total 50.0 g total weight. The jars were mixed on the orbital shaker for 15-30 minutes and initially photographed, and then mixed on the orbital shaker for 7 days and re-photographed.
Concentrates of the four test formulations were prepared comprising the calcium alkyl benzene sulfonate surfactant at 7.5 wt % actives, a Bacillus spore blend at 10.0 wt % (5×10^9 CFU/g), 1.5 wt % of the respective additive mixture, and water to total 100%. Each concentrate was 20 g total weight. Two control concentrates were also prepared. The positive control concentrate contained 10 wt % of the Bacillus spore blend and water, and the negative control concentrate contained 10 wt % of the Bacillus spore blend, 7.5 wt % surfactant actives, and water.

[4] = tested on: beneficial microorganisms; experiment: compatibility of surfactants and builders with beneficial microorganisms; assay type: cell-based
Method: The compositions of the present technology comprise at least one surfactant that is incompatible with a beneficial microorganism. Incompatibility between a surfactant and a beneficial microorganism has been investigated in various ways, such as a standard Zone of Inhibition test, a standard agar plating test, or a standard resazurin (7-hydroxy-10-oxidophenoxazin-10-ium-3-one, sodium) (a blue fluorogenic dye) compatibility assay. In a Zone of Inhibition test, microorganisms are grown, cultured, diluted down to target levels, and then applied to a Petri dish containing agar nutrients. Test samples containing the surfactant of interest are diluted and loaded into an agar well created within the agar nutrient. The plates are incubated and microorganism growth is allowed to develop. […] This halo is referred to as the zone of inhibition. The larger the zone, the bigger the effect of inhibition. Major suitability limitations for non-antibiotics test samples for this test method are inherent large dilution of active, agar diffusion challenges, and nutrient media incompatibilities (neutralization, precipitation, etc). Although this method has been used in the medical field for antibiotics very successfully for decades, it has low suitability when testing non-antibiotic samples. In a standard agar plating test, test samples containing the surfactant of interest and microorganisms are exposed, diluted several orders of magnitude, and plated onto a nutritive agar that is incubated. After an incubation period appropriate for the species, the microorganism growth pattern is evaluated against appropriate controls. […] The test samples are incubated and then inspected for colorometric and fluorescence change. Test samples that are blue and have low fluorescence indicate no biological activity and incompatibility between the surfactant and the microorganism. Test samples that are pink and have high fluorescence indicate biological activity and compatibility of the surfactant with the microorganism. […]

[5] = alkyl sarcosinate MAPROSYL 30-B, FIG. 3
[6] = alpha-sulfonated alkyl ester ALPHA-STEP PC-48, additives with glucose, FIG. 5
[7] = alpha-sulfonated alkyl ester ALPHA-STEP PC-48, additives without glucose, FIG. 4
[8] = concentrate 7.5 wt % surfactant actives diluted to 2.0 wt %
[9] = surfactant 0.2 wt % active, 0.09 wt % potassium nitrate, 0.02 wt % magnesium chloride hexahydrate, 7 days

Molecule: cocoamidopropyl hydroxysultaine [AMPHOSOL® CS-50]
- biological activity (haze) of bacterial spores, surfactant with additives ([1]; surfactant 0.2 wt % active, 0.09 wt % L-alanine, 0.09 wt % potassium nitrate, 0.02 wt % magnesium chloride hexahydrate, 7 days): shows haze, indicative of biological activity
- biological activity (haze) of bacterial spores, surfactant without additives ([1]; surfactant 0.2 wt % active, no additive, 1×10^7 CFU/g, 7 days orbital shaking): inhibits biological activity

Molecule: O=[N+]([O-])[O-].[K+] [KNO3, potassium nitrate]
- desirability (optimization contour plot of EVOO digestion) [2, 5]: high desirability
- desirability (optimization contour plot of EVOO digestion) [2, 6]: high desirability
- desirability (optimization contour plot of EVOO digestion) [2, 7]: high desirability
- desirability (contour plot combining digestion and physical stability) ([3]; alpha sulfonated alkyl ester test compositions of Example 3, FIG. 10): higher desirability

Molecule: sodium laureth sulfate [alkyl ether sulfate]
- haze after 7 days, 1.5 wt % TOXIMUL 8240, no additive (Bacillus spore blend; [8]): lack of haze
- haze after 7 days, no additive, no TOXIMUL 8240 (Bacillus spore blend; [8]): lack of haze
- haze after 7 days, additive and TOXIMUL 8240 (Bacillus spore blend; concentrate 7.5 wt % surfactant actives, 0.75 wt % potassium chloride, 0.75 wt % magnesium nitrate, 1.5 wt % TOXIMUL 8240, diluted to 2.0 wt %): increase in haze
- haze after 7 days, additive, no TOXIMUL 8240 (Bacillus spore blend; concentrate 7.5 wt % surfactant actives, 0.75 wt % potassium chloride, 0.75 wt % magnesium nitrate, diluted to 2.0 wt %): lack of haze

Molecule: O=C([O-])[C@H](O)[C@@H](O)[C@H](O)[C@H](O)CO.[Na+] [sodium gluconate]
- compatibility with beneficial microorganisms [4]: compatible

Molecule: calcium alkyl benzene sulfonate
- haze after 7 days, equal amounts of the additive components (Bacillus spore blend; 7.5 wt % surfactant actives, 0.5 wt % of each of L-alanine, Mg(NO3)2 and KCl, diluted to 2.0 wt %): some increase in haze
- haze after 7 days, L-alanine as the majority additive component (Bacillus spore blend; 7.5 wt % surfactant actives, 1.0 wt % L-Alanine + 0.25 wt % each of KCl and Mg(NO3)2, diluted to 2.0 wt %): some increase in haze
- haze after 7 days, Mg(NO3)2 as the majority additive component (Bacillus spore blend; 7.5 wt % surfactant actives, 1.0 wt % Mg(NO3)2 and 0.25 wt % each of L-alanine and KCl, diluted to 2.0 wt %): some increase in haze
- haziness after 7 days, surfactant without additive (negative control) (Bacillus spore blend; [8]): reduced haziness

Molecule: C[C@H](N)C(=O)O [L-alanine]
- desirability (optimization contour plot of EVOO digestion) [2, 5]: high desirability
- desirability (optimization contour plot of EVOO digestion) [2, 6]: low to zero desirability
- desirability (optimization contour plot of EVOO digestion) [2, 7]: high desirability
- desirability (optimization contour plot of EVOO digestion) ([2]; rhamnolipid surfactant, additives without glucose, FIG. 1): high desirability
- desirability (contour plot combining digestion and physical stability) [3]: higher desirability

Molecule: C12-C14 monoethanolamide-7EO-4PO [C42 MEA Amide-7EO-4PO]
- biological activity (haze), low foam alkoxylate with additives [1, 9]: increased biological activity

Molecule: C=CCCCCCCCC(=O)N(C)C [STEPOSOL MET-10U]
- compatibility with beneficial microorganisms [4]: compatible

Molecule: O=C([O-])CC(O)(CC(=O)[O-])C(=O)O.[Mg+2] [Mg(Citrate) dibasic]
- biological activity (haze), magnesium salt in the additive ([1]; 7 days): restore biological activity

Molecule: isodecyl-1PO-8EO [DA-1PO-8EO]
- biological activity (haze), low foam alkoxylate with additives [1, 9]: increased biological activity
- biological activity (haze), low foam alkoxylate without additives ([1]; surfactant 0.2 wt % active, 1.0 wt % TOXIMUL 8240, no additive, 7 days): the most sign of inhibition

Molecule: O.O.O=C([O-])CC(O)(CC(=O)[O-])C(=O)[O-].[Na+].[Na+].[Na+] [sodium citrate dihydrate]
- compatibility with beneficial microorganisms [4]: compatible

Molecule: O=S(=O)([O-])[O-].[Mg+2] [MgSO4, magnesium sulfate]
- biological activity (haze), magnesium salt in the additive ([1]; 7 days): restore biological activity

Molecule: O=[N+]([O-])[O-].O=[N+]([O-])[O-].[Mg+2] [Mg(NO3)2, magnesium nitrate]
- biological activity (haze), magnesium salt in the additive ([1]; 7 days): restore biological activity
